Results taken from patent US20080039499A1, “Chemical Compounds” (priority 2004, published 2008).

Tested on: MCP-1 Mediated Calcium Flux in THP-1 Cells
Assay: MCP-1 mediated calcium flux in THP-1 cells (FLIPR)
Type: cell-based, human
Settings: stimulation of THP-1 cells; from dose response curves; read-out: approximate EC50 of hMCP-1 for rise in [Ca2+]i
Method: a) MCP-1 Mediated Calcium Flux in THP-1 Cells
The human monocytic cell line THP-1 was grown in a synthetic cell culture medium RPMI 1640 supplemented with 10% foetal calf serum, 6 mM glutainine and Penicillin-Streptomycin (at 50 IU/ml penicillin, 50 μg streptomycin/ml, Gibco BRL). THP-1 cells were washed in assay buffer comprising of HBSS with Ca^2+ and Mg^2+ (without phenol red) (Gibco BRL)+20 mM HEPES+0.71 mg/ml Propenecid+2 mls/litre CaCl2 1M (BDH)+0.3 mg/ml BSA (Sigma) pH 7.4 and resuspended in the same buffer at a density of 1×10^6 cells/ml. The cells were then loaded with assay buffer+[…] FLUO-4 (molecular probes) for 40 min at 37° C., washed twice in assay buffer, and resuspended at 2×10^5 cells/ml. 100 μl of the cell suspension was added to the wells of black clear-bottomed 96 well plates, to give 2×10^4 cells/well. Cells were pelleted by centrifugation and washed with assay buffer. 100 ul of buffer+50 ul of compound was added to wells and incubated for 20 mins at (37° C.). Fluorescence was recorded using a FLIPR (FLuorometric Imaging Plate Reader—Molecular Devices). Cells were stimulated by addition of hMCP-1 to the wells.
Stimulation of THP-1 cells with hMCP-1 induced a rapid, transient rise in [Ca^2+]i in a specific and dose dependent manner. Dose response curves indicated an approximate EC50 of 4 nm. […]

EC50: ~4 nM
Substance: hMCP-1: human Monocyte chemoattractant protein-1, a C—C chemokine and CCR2 ligand, used to stimulate THP-1 cells
